Experimental data as given in US20180271873A1, “METHODS FOR TREATING VIRAL INFECTIONS” (priority 2015, published 2018).
pEC50: −log10 of the molar value.

tested on: GFP-expressing Zaire Ebolavirus Mayinga-GFP; assay: microbe, parasite or virus in culture; assay type: cell-based; conditions: HeLa, read-out: Activity (Biological activity, EC50)

Q: With `FC(F)(F)c1cccc(/C=N/Nc2cc(N3CCOCC3)nc(OCCc3ccccn3)n2)c1` [Compound 33, (E)-4-(2-(2-(Pyridin-2-yl)ethoxy)-6-(2-(3-(trifluoromethyl)benzylidene)hydrazinyl)pyrimidin-4-yl)morpholine] as the compound, how does the pEC50 read?
A: > 6.00

Q: With `Cc1cccc(/C=N/Nc2cc(N3CCOCC3)nc(OCc3ccccc3)n2)c1` [Compound 47, (E)-4-(2-(Benzyloxy)-6-(2-(3-methylbenzylidene)hydrazinyl)pyrimidin-4-yl)morpholine] as the compound, how does the pEC50 read?
A: > 6.00

Q: How did the pEC50 turn out when `Cc1cccc(/C=N/Nc2cc(N3CCOCC3)nc(OCCc3ccc(N4CCOCC4)cn3)n2)c1` [Compound 57] was run?
A: < 4.30

Q: How did the pEC50 turn out when `Cc1cccc(/C=N/Nc2cc(N3CCOCC3)nc(OCCCc3ccccn3)n2)c1` [Compound 14, (E)-4-(6-(2-(3-Methylbenzylidene)hydrazinyl)-2-(3-(pyridin-2-yl)propoxy)pyrimidin-4-yl)morpholine] was run?
A: > 6.00

Q: With `Cc1cccc(/C=N/Nc2nc(OCCc3ccccn3)nc(N3CCOCC3)c2C#N)c1` [Compound 38, (E)-4-(2-(3-Methylbenzylidene)hydrazinyl)-6-morpholino-2-(2-(pyridin-2-yl)ethoxy)pyrimidine-5-carbonitrile] as the compound, how does the pEC50 read?
A: < 4.30

Q: With `C/C(=N\Nc1cc(N2CCOCC2)nc(OCCc2ccccn2)n1)c1cccc(C)c1` [Compound 34, (E)-4-(2-(2-(Pyridin-2-yl)ethoxy)-6-(2-(1-m-tolylethylidene)hydrazinyl)pyrimidin-4-yl)morpholine] as the compound, how does the pEC50 read?
A: > 6.00

Q: `Cc1cccc(/C=N/Nc2nc(OCCc3ccccn3)nc(N3CCOCC3)c2Cl)c1` [Compound 39, (E)-4-(5-Chloro-6-(2-(3-methylbenzylidene)hydrazinyl)-2-(2-(pyridin-2-yl)ethoxy)pyrimidin-4-yl)morpholine] was tested. Which pEC50 did it give?
A: < 4.30

Q: `C(=N\Nc1cc(N2CCOCC2)nc(OCCc2ccccn2)n1)/c1cncnc1` [Compound 12, (E)-4-(2-(2-(Pyridin-2-yl)ethoxy)-6-(2-(pyrimidin-5-ylmethylene)hydrazinyl)pyrimidin-4-yl)morpholine] was tested. Which pEC50 did it give?
A: < 4.30

Q: How did the pEC50 turn out when `Cc1cccc(/C=N/Nc2cc(N3CCOCC3)nc(OCCc3ccncn3)n2)c1` [Compound 29, (E)-4-(6-(2-(3-Methylbenzylidene)hydrazinyl)-2-(2-(pyrimidin-4-yl)ethoxy)pyrimidin-4-yl)morpholine] was run?
A: 4.30 to 6.00

Q: With `Cc1cccc(/C=N/Nc2cc(N3CCOCC3)nc(Oc3ccccn3)n2)c1` [Compound 25, (E)-4-(6-(2-(3-Methylbenzylidene)hydrazinyl)-2-(pyridin-2-yloxy)pyrimidin-4-yl)morpholine] as the compound, how does the pEC50 read?
A: > 6.00

Q: With `Cc1cccc(/C=N/Nc2cc(N3CCOCC3)nc(OCc3ncc(Cl)cn3)n2)c1` [Compound 52, (E)-4-(2-((5-Chloropyrimidin-2-yl)methoxy)-6-(2-(3-methylbenzylidene)hydrazinyl)pyrimidin-4-yl)morpholine] as the compound, how does the pEC50 read?
A: > 6.00

Q: `Cc1cccc(/C=N/Nc2cc(N3CCOCC3)nc(OCC(C)c3ccccn3)n2)c1` (centres unmarked) [Compound 13, (E)-4-(6-(2-(3-Methylbenzylidene)hydrazinyl)-2-(2-(pyridin-2-yl)propoxy)pyrimidin-4-yl)morpholine] was tested. Which pEC50 did it give?
A: > 6.00

Q: `Cc1cccc(/C=N/Nc2cc(N3CCOCC3)nc(OC(C)c3ncccn3)n2)c1` (centres unmarked) [Compound 49, (E)-4-(6-(2-(3-Methylbenzylidene)hydrazinyl)-2-(1-(pyrimidin-2-yl)ethoxy)pyrimidin-4-yl)morpholine] was tested. Which pEC50 did it give?
A: > 6.00

Q: How did the pEC50 turn out when `Cc1cccc(/C=N/Nc2cc(N3CCOCC3)nc(Oc3ccc4cccnc4c3)n2)c1` [Compound 15, (E)-4-(6-(2-(3-Methylbenzylidene)hydrazinyl)-2-(quinolin-7-yloxy)pyrimidin-4-yl)morpholine] was run?
A: > 6.00

Q: `Cc1cccc(/C=N/Nc2cc(N3CCOCC3)nc(-c3cccc(-c4ccccn4)c3)n2)c1` [Compound 30, (E)-4-(6-(2-(3-Methylbenzylidene)hydrazinyl)-2-(3-(pyridin-2-yl)phenyl)pyrimidin-4-yl)morpholine] was tested. Which pEC50 did it give?
A: 4.30 to 6.00

Q: `Cc1cccc(/C=N/Nc2cc(N3CCS(=O)(=O)CC3)nc(OCCc3ccccn3)n2)c1` [Compound 16] was tested. Which pEC50 did it give?
A: < 4.30

Q: How did the pEC50 turn out when `C(=N\Nc1cc(N2CCOCC2)nc(OCCc2ccccn2)n1)/c1ccccc1` [Compound 46, (E)-4-(6-(2-Benzylidenehydrazinyl)-2-(2-(pyridin-2-yl)ethoxy)pyrimidin-4-yl)morpholine] was run?
A: 4.30 to 6.00

Q: With `Cc1cccc(/C=N/Nc2cc(N3CCOCC3)nc(OCCc3ccc(N)nc3)n2)c1` [Compound 43, (E)-5-(2-(4-(2-(3-Methylbenzylidene)hydrazinyl)-6-morpholinopyrimidin-2-yloxy)ethyl)pyridin-2-amine] as the compound, how does the pEC50 read?
A: < 4.30

Q: With `Cc1cccc(/C=N/Nc2cc(N3CCOCC3)nc(OCCc3cnccn3)n2)c1` [Compound 44, (E)-4-(6-(2-(3-Methylbenzylidene)hydrazinyl)-2-(2-(pyrazin-2-yl)ethoxy)pyrimidin-4-yl)morpholine] as the compound, how does the pEC50 read?
A: 4.30 to 6.00

Q: `Cc1cccc(/C=N/Nc2cc(N3CCOCC3)nc(OCCc3ncccn3)n2)c1` [Compound 23, (E)-4-(6-(2-(3-Methylbenzylidene)hydrazinyl)-2-(2-(pyrimidin-2-yl)ethoxy)pyrimidin-4-yl)morpholine] was tested. Which pEC50 did it give?
A: > 6.00

Q: With `CCC(Oc1nc(N/N=C/c2cccc(C)c2)cc(N2CCOCC2)n1)c1ncccn1` (centres unmarked) [Compound 65, (E)-4-(6-(2-(3-Methylbenzylidene)hydrazinyl)-2-(1-(pyrimidin-2-yl)propoxy)pyrimidin-4-yl)morpholine] as the compound, how does the pEC50 read?
A: > 6.00

Q: `Cc1cccc(/C=N/Nc2cc(N3CCOCC3)nc(OC(C)Cc3ccccn3)n2)c1` (centres unmarked) [Compound 28, (E)-4-(6-(2-(3-Methylbenzylidene)hydrazinyl)-2-(1-(pyridin-2-yl)propan-2-yloxy)pyrimidin-4-yl)morpholine] was tested. Which pEC50 did it give?
A: > 6.00

Q: With `Cc1cccc(/C=N/Nc2cc(N3CCOCC3)nc(OCCc3ccccn3)n2)c1` [Compound 11, (E)-4-(6-(2-(3-Methylbenzylidene)hydrazinyl)-2-(2-(pyridin-2-yl)ethoxy)pyrimidin-4-yl)morpholine] as the compound, how does the pEC50 read?
A: > 6.00

Q: How did the pEC50 turn out when `Cc1cccc(/C=N/Nc2cc(N3CCOCC3)nc(OCCc3ccccc3)n2)c1` [Compound 20, (E)-4-(6-(2-(3-Methylbenzylidene)hydrazinyl)-2-phenethoxypyrimidin-4-yl)morpholine] was run?
A: 4.30 to 6.00

Q: With `Cc1cccc(/C=N/Nc2cc(N3CCOCC3)nc(Oc3ccc4nc(C)ccc4c3)n2)c1` [Compound 62, (E)-4-(6-(2-(3-Methylbenzylidene)hydrazinyl)-2-(2-methylquinolin-6-yloxy)pyrimidin-4-yl)morpholine] as the compound, how does the pEC50 read?
A: > 6.00

Q: With `Cc1cc(/C=N/Nc2cc(N3CCOCC3)nc(OCCc3ccccn3)n2)ccn1` [Compound 19, (E)-4-(6-(2-((2-Methylpyridin-4-yl)methylene)hydrazinyl)-2-(2-(pyridin-2-yl)ethoxy)pyrimidin-4-yl)morpholine] as the compound, how does the pEC50 read?
A: < 4.30

Q: With `Cc1cccc(/C=N/Nc2cc(N3CCOCC3)nc(OCc3nccc(C(F)(F)F)n3)n2)c1` [Compound 54, (E)-4-(6-(2-(3-Methylbenzylidene)hydrazinyl)-2-((4-(trifluoromethyl)pyrimidin-2-yl)methoxy)pyrimidin-4-yl)morpholine] as the compound, how does the pEC50 read?
A: > 6.00

Q: `Cc1cccc(/C=N/Nc2cc(N3CCCCC3)nc(OCCc3ccccn3)n2)c1` [Compound 21, (E)-4-(2-(3-Methylbenzylidene)hydrazinyl)-6-(piperidin-1-yl)-2-(2-(pyridin-2-yl)ethoxy)pyrimidine] was tested. Which pEC50 did it give?
A: < 4.30

Q: With `Cc1cccc(/C=N/Nc2cc(N3CCOCC3)nc(Oc3ccc4ccccc4c3)n2)c1` [Compound 53, (E)-4-(6-(2-(3-Methylbenzylidene)hydrazinyl)-2-(naphthalen-2-yloxy)pyrimidin-4-yl)morpholine] as the compound, how does the pEC50 read?
A: > 6.00

Q: How did the pEC50 turn out when `Cc1cccc(/C=N/Nc2cc(N3CCOCC3)nc(OCc3nc(C)cc(C)n3)n2)c1` [Compound 59, (E)-4-(2-((4,6-Dimethylpyrimidin-2-yl)methoxy)-6-(2-(3-methylbenzylidene)hydrazinyl)pyrimidin-4-yl)morpholine] was run?
A: > 6.00

Q: With `Cc1cccc(/C=N/Nc2cc(N3CC(C)OC(C)C3)nc(OCCc3ccccn3)n2)c1` (centres unmarked) [Compound 22, (E)-2,6-Dimethyl-4-(6-(2-(3-methylbenzylidene)hydrazinyl)-2-(2-(pyridin-2-yl)ethoxy)pyrimidin-4-yl)morpholine] as the compound, how does the pEC50 read?
A: 4.30 to 6.00

Q: `Cc1cccc(/C=N/Nc2cc(N3CCOCC3)nc(Oc3ccc4nc(Cl)ccc4c3)n2)c1` [Compound 55, (E)-4-(2-(2-Chloroquinolin-6-yloxy)-6-(2-(3-methylbenzylidene)hydrazinyl)pyrimidin-4-yl)morpholine] was tested. Which pEC50 did it give?
A: > 6.00

Q: With `C(=N\Nc1cc(N2CCOCC2)nc(OCCc2ccccn2)n1)/c1ccncc1` [Compound 17, (E)-4-(2-(2-(Pyridin-2-yl)ethoxy)-6-(2-(pyridin-4-ylmethylene)hydrazinyl)pyrimidin-4-yl)morpholine] as the compound, how does the pEC50 read?
A: < 4.30

Q: How did the pEC50 turn out when `Cc1cccc(/C=N/Nc2cc(N3CCOCC3)nc(OCC(F)(F)c3ccccc3)n2)c1` [Compound 45, (E)-4-(2-(2,2-Difluoro-2-phenylethoxy)-6-(2-(3-methylbenzylidene)hydrazinyl)pyrimidin-4-yl)morpholine] was run?
A: 4.30 to 6.00

Q: `Cc1cccc(/C=N/Nc2nc(OCCc3ccccn3)nc(N3CCOCC3)c2F)c1` [Compound 40, (E)-4-(5-Fluoro-6-(2-(3-methylbenzylidene)hydrazinyl)-2-(2-(pyridin-2-yl)ethoxy)pyrimidin-4-yl)morpholine] was tested. Which pEC50 did it give?
A: < 4.30

Q: With `COc1c(N/N=C/c2cccc(C)c2)nc(OCCc2ccccn2)nc1N1CCOCC1` [Compound 31, (E)-4-(5-Methoxy-6-(2-(3-methylbenzylidene)hydrazinyl)-2-(2-(pyridin-2-yl)ethoxy)pyrimidin-4-yl)morpholine] as the compound, how does the pEC50 read?
A: 4.30 to 6.00

Q: `Cc1cccc(/C=N/Nc2nc(OCCc3ccccn3)nc(N3CCOCC3)c2C)c1` [Compound 32, (E)-4-(5-Methyl-6-(2-(3-methylbenzylidene)hydrazinyl)-2-(2-(pyridin-2-yl)ethoxy)pyrimidin-4-yl)morpholine] was tested. Which pEC50 did it give?
A: 4.30 to 6.00

Q: How did the pEC50 turn out when `Cc1cccc(/C=N/Nc2cc(N3CCOCC3)nc(Oc3ccc4ncc(Cl)cc4c3)n2)c1` [Compound 66, (E)-4-(2-(3-Chloroquinolin-6-yloxy)-6-(2-(3-methylbenzylidene)hydrazinyl)pyrimidin-4-yl)morpholine] was run?
A: > 6.00
